Test results as given in patent US5079263A, “Manumycin derivatives and the use thereof” (Behringwerke Aktiengesellschaft, priority 1987, dated 1992).

Molecular target: T1, PMN elastase (Homo sapiens, UniProt P08246)
T1 construct: The elastase was isolated from human leukocytes; from tissue; host or cells: human leukocytes
T1 sequence (P08246 30-247 limits assumed): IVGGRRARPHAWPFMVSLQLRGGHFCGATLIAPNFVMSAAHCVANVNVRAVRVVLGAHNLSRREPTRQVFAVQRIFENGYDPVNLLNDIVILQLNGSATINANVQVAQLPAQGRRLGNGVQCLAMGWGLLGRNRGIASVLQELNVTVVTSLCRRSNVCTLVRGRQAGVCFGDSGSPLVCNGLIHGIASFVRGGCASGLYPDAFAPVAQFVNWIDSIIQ
Assay: Assay for Elastase from Polymorphonuclear Granulocytes (PMN Elastase)
Format: biochemical
Design: key to inhibiting effect in PMN elastase assay (inactive): Substances which showed no inhibiting effect at the maximum concentration of 100 μg/ml were defined as inactive
Details: for IC50: 1 hour preincubation with enzyme, substrate MeO-Suc-Ala-Ala-Pro-Val-pNA, 15 minutes, 405 nm, maximum 100 μg/ml, read-out: IC50 (inhibiting effect on PMN elastase) (converted); for inhibiting effect on PMN elastase, comparison in words: compared with manumycin / compounds (1) to (3)
Experimental: The elastase was isolated from human leukocytes by the method described by Engelbrecht et al. (Hoppe-Seyler's Physiol. Chem. 363, pp. 305-315, 1982). The substrate used was the MeO-Suc-[…] (Calbiochem) described by Nakajima et al. (J. Biol. Chem. 254, pp. 4027-4032, 1979). The Liberation of the p-nitroaniline from the substrate in 15 minutes was measured as the increase in absorption at 405 nm in a spectrophotometer. This absorption was defined as 100% activity of the enzyme PMN elastase. The inhibitors of PMN elastase were preincubated in increasing concentrations up to a maximum of 100 μg/ml with the enzyme for 1 hour, and the enzyme reaction was started with the substrate. The IC50 was defined as that inhibitor concentration which inhibits 50% of the enzyme activity.

| Structure (SMILES) | inhibition of leukocyte elastase, in words | IC50 [µM] | inhibiting effect in PMN elastase assay (inactive) (maximum concentration 100 μg/ml, "--" in Table 2) | inhibiting effect on PMN elastase, comparison in words |
| --- | --- | --- | --- | --- |
| CCCC[C@@H](C)/C=C(C)/C=C(\C)C(=O)Nc1cc(/C=C/C=C/C=C/C(=O)NC2=C(O)CCC2=O)c(O)cc1O [Compound (1)] | inhibit leukocyte elastase | 4.68 |  |  |
| CCCC[C@@H](C)/C=C(C)/C=C(\C)C(=O)Nc1cc(/C=C/C=C/C=C/C(=O)NC2=C(O)CCC2=O)ccc1O [Compound (2)] | inhibit leukocyte elastase | 5.98 |  |  |
| CCCC[C@@H](C)/C=C(C)/C=C(\C)C(=O)Nc1cccc(/C=C/C=C/C=C/C(=O)NC2=C(O)CCC2=O)c1 [Compound (3)] | inhibit leukocyte elastase | 7.16 |  |  |
| Nc1cccc(/C=C/C=C/C=C/C(=O)NC2=C(O)CCC2=O)c1 [Compound (4)] |  |  | inactive |  |
| Nc1ccc(/C=C/C=C/C=C/C(=O)NC2=C(O)CCC2=O)cc1 [Compound (5)] | inhibit leukocyte elastase | 135 |  | distinctly weaker inhibiting effect |
| CCCCC(C)C=C(C)C=C(C)C(=O)NC1=CC(O)(C=CC=CC=CC(=O)NC2=C(O)CCC2=O)C2OC2C1=O (stereo not drawn) [Manumycin, manumycin] |  | 7.99 |  | comparable to that of the compounds (1) to (3) |
